Like-named read-outs stand apart in the source and are kept apart here.
System: cancer cells
Experiment: MTS assay: inhibition of cell growth (formazan absorbance at 492 nm after 72 hours with test compound)
Format: cell-based
Conditions: inhibition class
Method: Cells were maintained at 37° C., 5% CO2 in DMEM media supplemented with 1% fetal bovine serum, penicillin/streptomycin and fungizone (Invitrogen). Cells were seeded into 96-well tissue culture plates at 3000 per well and cultured at 37° C. for 18 hours. Test compounds were dissolved and diluted to 300× in DMSO then diluted 1:40 in DMEM. Cells were incubated with test compounds for 72 hours followed by incubation with tetrazolium compound (3-(4,5-dimethylthiazol-2-yl)-5-(3-carboxymethoxyphenyl)-2-(4-sulfophenyl)-2H-tetrazolium, inner salt; MTS) and the electron coupling reagent, phenazine methosulfate (PMS) for 4 hours. […] The ability of compounds to inhibit cell growth in this assay is correlated with the reduction of dehydrogenase enzyme activity found in metabolically active cells. The measurement of the absorbance of the formazan was assessed using an ENVISION™ (Perkin Elmer) microplate reader at 492 nm. The calculated IC50 value is the concentration of the test compound that causes a 50% decrease in the absorbance. […] A=>79% inhibition, B=>50 to 79% inhibition, C=<50% inhibition.

[1] = Homo sapiens, DLD-1 cells, read-out: DLD-1, MTS 72 hours at 10 uM
[2] = Homo sapiens, KATO III cells, read-out: KATO III, MTS 72 hours at 10 uM
[3] = Homo sapiens, MDA-MB-231 cells, read-out: MDA-MB-231, MTS 72 hours at 10 uM
[4] = Homo sapiens, NCI-H1299 cells, read-out: NCI-H1299, MTS 72 hours at 10 uM
[5] = Homo sapiens, PC-3 cells, read-out: PC-3, MTS 72 hours at 10 uM
[6] = PACA-2 cells, read-out: PACA-2, MTS 72 hours at 10 uM

COc1ccc(CN2CCCc3n[nH]c4nc(NCCc5ccc(F)cc5)nc2c34)cc1 [Compound 248, N-[2-(4-fluorophenyl)ethyl]-6-(4-methoxybenzyl)-6,7,8,9-tetrahydro-2H-1,2,3,5,6-pentaazabenzo[cd]azulen-4-amine]
inhibition at 10 µM [1]: > 79%
inhibition at 10 µM [2]: > 79%
inhibition at 10 µM [3]: > 79%
inhibition at 10 µM [4]: > 79%
inhibition at 10 µM [5]: > 79%
inhibition at 10 µM [6]: > 79%

c1ccc(CNc2nc3c4c(n[nH]c4n2)CCN3Cc2ccccc2)cc1 [Compound 37, N,6-dibenzyl-2,6,7,8-tetrahydro-1,2,3,5,6-pentaazaacenaphthylen-4-amine]
inhibition at 10 µM [1]: < 50%
inhibition at 10 µM [2]: < 50%
inhibition at 10 µM [3]: < 50%
inhibition at 10 µM [4]: < 50%
inhibition at 10 µM [5]: < 50%
inhibition at 10 µM [6]: < 50%

COc1ccc(CN2CCc3n[nH]c4nc(NC5Cc6ccccc6C5)nc2c34)cc1 [Compound 106, N-(2,3-dihydro-1H-inden-2-yl)-6-(4-methoxybenzyl)-2,6,7,8-tetrahydro-1,2,3,5,6-pentaazaacenaphthylen-4-amine]
inhibition at 10 µM [1]: > 79%
inhibition at 10 µM [2]: > 79%
inhibition at 10 µM [3]: < 50%
inhibition at 10 µM [4]: 50 to 79%
inhibition at 10 µM [5]: < 50%
inhibition at 10 µM [6]: 50 to 79%

Fc1cccc(CNc2nc3c4c(n[nH]c4n2)CCN3)c1 [Compound 127, N-(3-fluorobenzyl)-2,6,7,8-tetrahydro-1,2,3,5,6-pentaazaacenaphthylen-4-amine]
inhibition at 10 µM [1]: > 79%
inhibition at 10 µM [2]: > 79%
inhibition at 10 µM [3]: > 79%
inhibition at 10 µM [4]: 50 to 79%
inhibition at 10 µM [5]: > 79%
inhibition at 10 µM [6]: > 79%

COc1ccc(CN2CCc3n[nH]c4nc(N5CCN(c6ccncc6)CC5)nc2c34)cc1 [Compound 103, 6-(4-methoxybenzyl)-4-(4-pyridin-4-ylpiperazin-1-yl)-2,6,7,8-tetrahydro-1,2,3,5,6-pentaazaacenaphthylene]
inhibition at 10 µM [1]: > 79%
inhibition at 10 µM [2]: > 79%
inhibition at 10 µM [3]: > 79%
inhibition at 10 µM [4]: 50 to 79%
inhibition at 10 µM [5]: > 79%
inhibition at 10 µM [6]: > 79%

c1ccc(CN2CCc3n[nH]c4nc(NCc5ccc(Oc6ccccc6)cc5)nc2c34)cc1 [Compound 40]
inhibition at 10 µM [1]: < 50%
inhibition at 10 µM [2]: 50 to 79%
inhibition at 10 µM [3]: < 50%
inhibition at 10 µM [4]: 50 to 79%
inhibition at 10 µM [5]: < 50%
inhibition at 10 µM [6]: 50 to 79%

Clc1ccc(CNc2nc3c4c(n[nH]c4n2)CCN3c2ccccc2)cc1 [Compound 213, N-(4-chlorobenzyl)-6-phenyl-2,6,7,8-tetrahydro-1,2,3,5,6-pentaazaacenaphthylen-4-amine]
inhibition at 10 µM [1]: < 50%
inhibition at 10 µM [2]: < 50%
inhibition at 10 µM [3]: < 50%
inhibition at 10 µM [4]: 50 to 79%
inhibition at 10 µM [5]: < 50%
inhibition at 10 µM [6]: 50 to 79%

Clc1cncc(Cl)c1N1CCN(c2nc3c4c(n[nH]c4n2)CCN3Cc2ccccc2)CC1 [Compound 85, 6-benzyl-4-[4-(3,5-dichloropyridin-4-yl)piperazin-1-yl]-2,6,7,8-tetrahydro-1,2,3,5,6-pentaazaacenaphthylene]
inhibition at 10 µM [1]: < 50%
inhibition at 10 µM [2]: < 50%
inhibition at 10 µM [3]: 50 to 79%
inhibition at 10 µM [4]: < 50%
inhibition at 10 µM [5]: > 79%
inhibition at 10 µM [6]: < 50%

c1ccc(CN2CCc3n[nH]c4nc(N5CCN(c6ccccn6)CC5)nc2c34)cc1 [Compound 95, 6-benzyl-4-(4-pyridin-2-ylpiperazin-1-yl)-2,6,7,8-tetrahydro-1,2,3,5,6-pentaazaacenaphthylene]
inhibition at 10 µM [1]: < 50%
inhibition at 10 µM [2]: < 50%
inhibition at 10 µM [3]: < 50%
inhibition at 10 µM [4]: < 50%
inhibition at 10 µM [5]: < 50%
inhibition at 10 µM [6]: < 50%

OCCN(Cc1ccccc1)c1nc2c3c(n[nH]c3n1)CCN2Cc1ccccc1 [Compound 62, 2-[benzyl(6-benzyl-2,6,7,8-tetrahydro-1,2,3,5,6-pentaazaacenaphthylen-4-yl)amino]ethanol]
inhibition at 10 µM [1]: < 50%
inhibition at 10 µM [2]: < 50%
inhibition at 10 µM [3]: 50 to 79%
inhibition at 10 µM [4]: < 50%
inhibition at 10 µM [5]: < 50%
inhibition at 10 µM [6]: < 50%

c1ccc(N2CCc3n[nH]c4nc(N5CCOCC5)nc2c34)cc1 [Compound 218, 4-morpholin-4-yl-6-phenyl-2,6,7,8-tetrahydro-1,2,3,5,6-pentaazaacenaphthylene]
inhibition at 10 µM [1]: < 50%
inhibition at 10 µM [2]: < 50%
inhibition at 10 µM [3]: < 50%
inhibition at 10 µM [4]: < 50%
inhibition at 10 µM [5]: < 50%
inhibition at 10 µM [6]: < 50%

COc1ccccc1N1CCN(c2nc3c4c(n[nH]c4n2)CCN3Cc2ccccc2)CC1 [Compound 43, 6-benzyl-4-[4-(2-methoxyphenyl)piperazin-1-yl]-2,6,7,8-tetrahydro-1,2,3,5,6-pentaazaacenaphthylene]
inhibition at 10 µM [1]: < 50%
inhibition at 10 µM [2]: > 79%
inhibition at 10 µM [3]: > 79%
inhibition at 10 µM [4]: < 50%
inhibition at 10 µM [5]: > 79%
inhibition at 10 µM [6]: < 50%

COc1cccc(CNc2nc3c4c(n[nH]c4n2)CCN3Cc2ccccc2)c1 [Compound 93, 6-benzyl-N-(3-methoxybenzyl)-2,6,7,8-tetrahydro-1,2,3,5,6-pentaazaacenaphthylen-4-amine]
inhibition at 10 µM [1]: < 50%
inhibition at 10 µM [2]: < 50%
inhibition at 10 µM [3]: < 50%
inhibition at 10 µM [4]: < 50%
inhibition at 10 µM [5]: < 50%
inhibition at 10 µM [6]: < 50%

COc1ccc(CN2CCCc3n[nH]c4nc(N5CCN(Cc6ccccc6)CC5)nc2c34)cc1 [Compound 254, 4-(4-benzylpiperazin-1-yl)-6-(4-methoxybenzyl)-6,7,8,9-tetrahydro-2H-1,2,3,5,6-pentaazabenzo[cd]azulene]
inhibition at 10 µM [1]: > 79%
inhibition at 10 µM [2]: > 79%
inhibition at 10 µM [3]: > 79%
inhibition at 10 µM [4]: > 79%
inhibition at 10 µM [5]: > 79%
inhibition at 10 µM [6]: > 79%

COc1ccc(CN2CCCc3n[nH]c4nc(N5CCCC5)nc2c34)cc1 [Compound 244, 6-(4-methoxybenzyl)-4-pyrrolidin-1-yl-6,7,8,9-tetrahydro-2H-1,2,3,5,6-pentaazabenzo[cd]azulene]
inhibition at 10 µM [1]: < 50%
inhibition at 10 µM [2]: < 50%
inhibition at 10 µM [3]: < 50%
inhibition at 10 µM [4]: < 50%
inhibition at 10 µM [5]: < 50%
inhibition at 10 µM [6]: < 50%

O=C(NCC1CCCCC1)C1CN(Cc2ccccc2)c2nc(NCc3ccccc3)nc3[nH]nc1c23 (stereo not drawn) [Compound 240, 6-benzyl-4-(benzylamino)-N-(cyclohexylmethyl)-2,6,7,8-tetrahydro-1,2,3,5,6-pentaazaacenaphthylene-8-carboxamide]
inhibition at 10 µM [1]: > 79%
inhibition at 10 µM [2]: > 79%
inhibition at 10 µM [3]: < 50%
inhibition at 10 µM [4]: > 79%
inhibition at 10 µM [5]: > 79%
inhibition at 10 µM [6]: < 50%

COc1ccc(CN2CCc3n[nH]c4nc(NC5CCN(C)CC5)nc2c34)cc1 [Compound 111, 6-(4-methoxybenzyl)-N-(1-methylpiperidin-4-yl)-2,6,7,8-tetrahydro-1,2,3,5,6-pentaazaacenaphthylen-4-amine]
inhibition at 10 µM [1]: < 50%
inhibition at 10 µM [2]: < 50%
inhibition at 10 µM [3]: < 50%
inhibition at 10 µM [4]: < 50%
inhibition at 10 µM [5]: < 50%
inhibition at 10 µM [6]: < 50%

OCCN1CCN(c2nc3c4c(n[nH]c4n2)CCN3Cc2ccccc2)CC1 [Compound 75, 2-[4-(6-benzyl-2,6,7,8-tetrahydro-1,2,3,5,6-pentaazaacenaphthylen-4-yl)piperazin-1-yl]ethanol]
inhibition at 10 µM [1]: < 50%
inhibition at 10 µM [2]: < 50%
inhibition at 10 µM [3]: < 50%
inhibition at 10 µM [4]: < 50%
inhibition at 10 µM [5]: < 50%
inhibition at 10 µM [6]: < 50%

COCC(C)Nc1nc2c3c(n[nH]c3n1)CCN2Cc1ccccc1 (stereo not drawn) [Compound 78, 6-benzyl-N-(2-methoxy-1-methylethyl)-2,6,7,8-tetrahydro-1,2,3,5,6-pentaazaacenaphthylen-4-amine]
inhibition at 10 µM [1]: < 50%
inhibition at 10 µM [2]: < 50%
inhibition at 10 µM [3]: > 79%
inhibition at 10 µM [4]: < 50%
inhibition at 10 µM [5]: > 79%
inhibition at 10 µM [6]: < 50%

c1ccc(CC2CCN(c3nc4c5c(n[nH]c5n3)CCN4Cc3ccccc3)CC2)cc1 [Compound 45, 6-benzyl-4-(4-benzylpiperidin-1-yl)-2,6,7,8-tetrahydro-1,2,3,5,6-pentaazaacenaphthylene]
inhibition at 10 µM [1]: < 50%
inhibition at 10 µM [2]: < 50%
inhibition at 10 µM [3]: < 50%
inhibition at 10 µM [4]: < 50%
inhibition at 10 µM [5]: < 50%
inhibition at 10 µM [6]: < 50%

COc1ccc(CN2CCc3n[nH]c4nc(Nc5ccc(N6CCN(C)CC6)cc5)nc2c34)cc1 [Compound 120, 6-(4-methoxybenzyl)-N-[4-(4-methylpiperazin-1-yl)phenyl]-2,6,7,8-tetrahydro-1,2,3,5,6-pentaazaacenaphthylen-4-amine]
inhibition at 10 µM [1]: > 79%
inhibition at 10 µM [2]: > 79%
inhibition at 10 µM [3]: > 79%
inhibition at 10 µM [4]: 50 to 79%
inhibition at 10 µM [5]: > 79%
inhibition at 10 µM [6]: > 79%

From patent US8343983B2, “Substituted pyrazolo-pyrimidine compounds” (ArQule, Inc., priority 2009, dated 2013)
